According to patent publication US11028093B2, “4,6-substituted-pyrazolo[1,5-a]pyrazines as janus kinase inhibitors” (Array BioPharma Inc., priority 2014, dated 2021):
Read-outs that look alike come from different tables or passages of the source.

Columns and labels:
Assay type in all cases: biochemical
Human Tyk2 kinase domain = Human Tyk2 kinase domain (Homo sapiens (Human), UniProt P29597); experiment: Tyk2 Inhibition Assay (Omnia kinase fluorescence peptide substrate assay, 1 mM ATP)
From the text: (§1) The assays described in Examples A, B, C and D for the determination of Tyk2, JAK1, JAK2 and JAK3 kinase activity, respectively, utilized the Omnia® Kinase fluorescence peptide substrate-based technology (Invitrogen). The specific components of the assay mixture are described in Examples A, B, C and D. In these assays, Mg^2+ is chelated upon phosphorylation of the Omnia peptide by the kinase to form a bridge between the chelation-enhanced fluorophore Sox and the phosphate, resulting in an increase in fluorescence emission at 485 nm when excited at […]. The reactions were therefore read at excitation 360 nm and emission was measured at 485 nm every 50 seconds for 45 minutes using a PerkinElmer EnVision Multilabel Plate Reader.
(§2) The final buffer conditions for Tyk2, JAK1, JAK2, and JAK3 assays were as follows: 25 mM HEPES, pH 7.4, 10 mM MgCl2, 0.01% Triton X-100 and 1 mM DTT.
(§3) Two-μL aliquots of these were transferred to a fresh plate for a ten-fold intermediate dilution with assay buffer. Five-μL aliquots of the diluted compounds were then transferred to 20-μL of assay mixtures described in Examples A, B, C and D for a final concentration of DMSO of 2%. […] For each plate, percent of control (POC) values were calculated for each well according to the following equation:
(§4) where Xmax=Average Uninhibited Controls • Xmin=Average Background IC50's were estimated from the POC's using a standard 4-parameter logistic model:
(§5) where A=Minimum Y (Bottom Asymptote) • B=Maximum Y (Top Asymptote) • C=EC50 • D=Slope Factor • X=Compound Concentration (nM) • Y=POC
(§6) The IC50 is defined as the concentration of inhibitor at which the POC equals 50 for the fitted curve.
Compounds of Formula I were screened for their ability to inhibit Tyk2 using the general enzyme inhibition assay method, in which the assay mixture contained 1 mM ATP, 8 μM Omnia® Y12 peptide (Catalog # IVGN KPZ3121C; Invitrogen Corporation, Carlsbad, Calif.) and 1 nM Tyk2 in a total volume of 25 μL. […]

JAK2 = JAK2 (Homo sapiens (Human), UniProt O60674); experiment: JAK2 Inhibition Assay (Omnia kinase fluorescence peptide substrate assay, 1 mM ATP)
From the text: as §1, §2, §3, §4, §5, §6
(§7) Compounds of Formula I were screened for their ability to inhibit JAK2 using the general enzyme inhibition assay method, in which the assay mixture contained 1 mM ATP, 10 μM Omnia® Y7 peptide (Catalog # IVGN KNZ3071C, Invitrogen Corporation, Carlsbad, Calif.) and 4 nM JAK2 in a total volume of 25 μL. JAK2 was purchased from Invitrogen Corporation, Carlsbad, Calif. (catalog # IVGN PV4288).

JAK3 = JAK3 (Homo sapiens (Human), UniProt P52333); experiment: JAK3 Inhibition Assay (Omnia kinase fluorescence peptide substrate assay, 1 mM ATP)
From the text: as §1, §2, §3, §4, §5, §6
as §7, with “JAK3” for “JAK2”, “2” for “4”, “PV4080).” for “PV4288).”

JAK1 = JAK1 (Homo sapiens (Human), UniProt P23458); experiment: JAK1 Inhibition Assay (Omnia kinase fluorescence peptide substrate assay, 1 mM ATP)
From the text: as §1, §2
as §3, with “equation: […]” for “equation:”

[1] = read-out: TYK2 Enzyme IC50 1 mM ATP, 1 mM ATP, averaged IC50 ranges
[2] = read-out: JAK2 Enzyme IC50 1 mM ATP, 1 mM ATP, averaged IC50 ranges

Sequence of JAK2 (O60674 808-1132): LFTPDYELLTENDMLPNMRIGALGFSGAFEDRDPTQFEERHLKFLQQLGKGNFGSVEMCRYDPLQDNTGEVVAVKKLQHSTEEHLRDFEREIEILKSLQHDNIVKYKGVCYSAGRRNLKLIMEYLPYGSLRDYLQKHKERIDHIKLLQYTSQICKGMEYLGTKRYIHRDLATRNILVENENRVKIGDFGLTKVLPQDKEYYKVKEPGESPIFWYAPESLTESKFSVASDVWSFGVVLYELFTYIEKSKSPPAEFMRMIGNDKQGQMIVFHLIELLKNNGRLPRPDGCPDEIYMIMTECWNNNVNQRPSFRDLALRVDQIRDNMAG
Sequence of Human Tyk2 kinase domain (P29597 886-1187): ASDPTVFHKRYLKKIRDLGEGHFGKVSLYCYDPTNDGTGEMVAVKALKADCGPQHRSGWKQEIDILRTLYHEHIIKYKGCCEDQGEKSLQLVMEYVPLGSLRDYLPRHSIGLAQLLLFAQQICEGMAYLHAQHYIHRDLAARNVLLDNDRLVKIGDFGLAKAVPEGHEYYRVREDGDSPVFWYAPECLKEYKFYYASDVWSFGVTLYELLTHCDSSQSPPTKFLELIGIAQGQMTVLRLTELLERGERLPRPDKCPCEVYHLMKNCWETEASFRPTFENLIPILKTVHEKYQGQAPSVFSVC
Sequence of JAK3 (P52333 781-1124): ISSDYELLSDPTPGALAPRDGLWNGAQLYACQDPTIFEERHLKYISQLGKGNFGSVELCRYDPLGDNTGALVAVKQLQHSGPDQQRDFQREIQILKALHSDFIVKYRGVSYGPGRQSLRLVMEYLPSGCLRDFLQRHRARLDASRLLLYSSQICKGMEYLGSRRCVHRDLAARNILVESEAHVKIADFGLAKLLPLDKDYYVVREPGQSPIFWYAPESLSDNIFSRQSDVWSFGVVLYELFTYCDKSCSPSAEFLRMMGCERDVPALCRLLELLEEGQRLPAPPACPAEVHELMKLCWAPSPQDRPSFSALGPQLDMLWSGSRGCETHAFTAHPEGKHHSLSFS
Sequence of JAK1 (P23458 866-1154): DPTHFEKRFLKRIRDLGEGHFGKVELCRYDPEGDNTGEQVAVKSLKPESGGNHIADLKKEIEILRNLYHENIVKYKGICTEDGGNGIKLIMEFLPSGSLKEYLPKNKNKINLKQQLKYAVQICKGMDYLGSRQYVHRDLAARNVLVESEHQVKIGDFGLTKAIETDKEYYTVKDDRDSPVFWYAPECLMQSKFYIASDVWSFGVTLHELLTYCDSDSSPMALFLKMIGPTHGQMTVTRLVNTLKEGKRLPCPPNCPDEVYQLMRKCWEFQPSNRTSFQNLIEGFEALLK

Row | Molecule | IC50 (JAK2; [2]) [nM] | IC50 (JAK3) [nM] | further results
1 | CCC(CC)n1cc(-c2nc(-c3cnn([C@H]4CC[C@H](O)CC4)c3)cn3nccc23)cn1 [Example 118, trans-4-(4-(4-(1-(pentan-3-yl)-1H-pyrazol-4-yl)pyrazolo[1,5-a]pyrazin-6-yl)-1H-pyrazol-1-yl)cyclohexanol] | – | 1000 to 10000 | –
2 | CC[C@@H](CC1CC1)n1cc(-c2nc(-c3cnn(C[C@@H](O)CO)c3)cn3nccc23)cn1 [Example 205, (R)-3-(4-(4-(1-((S)-1-cyclopropylbutan-2-yl)-1H-pyrazol-4-yl)pyrazolo[1,5-a]pyrazin-6-yl)-1H-pyrazol-1-yl)propane-1,2-diol] | – | 1000 to 10000 | IC50 (Human Tyk2 kinase domain): 10 to 100 nM; IC50 (JAK1): 100 to 1000 nM; IC50 (JAK2): 10 to 100 nM
3 | (1s,3s)-3-(4-(4-(1-(pentan- 3-yl)-1H-pyrazol-4- yl)pyrazolo[1,5-a]pyrazin- 6-yl)-1H-pyrazol-1-yl) cyclobutanecarboxamide [Example 168] | 10 to 100 | – | IC50 (JAK3; read-out: JAK3 Enzyme IC50 1 mM ATP, 1 mM ATP, averaged IC50 ranges): 1000 to 10000 nM; IC50 (JAK1; read-out: JAK1 Enzyme IC50 1 mM ATP, 1 mM ATP, averaged IC50 ranges): 1000 to 10000 nM
4 | (R)-3-(4-(4-(1-((S)-2,2-dimethylcyclopentyl)-1H-pyrazol-4-yl)pyrazolo[1,5-a]pyrazin-6-yl)-1H-pyrazol-1-yl)propane-1,2-diol [Example 95] | 1000 to 10000 | – | IC50 (Human Tyk2 kinase domain; [1]): 1000 to 10000 nM
5 | CCC(CC)n1cc(-c2nc(-c3cnn(C4CN(S(C)(=O)=O)C4)c3)cn3nccc23)cn1 [Example 37, 6-(1-(1-(methylsulfonyl)azetidin-3-yl)-1H-pyrazol-4-yl)-4-(1-(pentan-3-yl)-1H-pyrazol-4-yl)pyrazolo[1,5-a]pyrazine] | < 10 | – | –

Second part, led by results:

Row | IC50 (JAK2; [2]) [nM] | IC50 (JAK3) [nM] | Molecule | further results
6 | < 10 | – | CCC1(n2cc(-c3nc(-c4cnn(C)c4)cn4nccc34)cn2)CN(S(=O)(=O)C(F)(F)F)C1 [Example 48, 4-(1-(3-ethyl-1-((trifluoromethyl)sulfonyl)azetidin-3-yl)-1H-pyrazol-4-yl)-6-(1-methyl-1H-pyrazol-4-yl)pyrazolo[1,5-a]pyrazine] | IC50 (Human Tyk2 kinase domain; [1]): < 10 nM
7 | – | 1000 to 10000 | CCC(CC)n1cc(-c2nc(-c3cnn([C@H]4CC[C@@H](O)CC4)c3)cn3nccc23)cn1 [Example 121, cis-4-(4-(4-(1-(pentan-3-yl)-1H-pyrazol-4-yl)pyrazolo[1,5-a]pyrazin-6-yl)-1H-pyrazol-1-yl)cyclohexanol] | –
8 | – | 1000 to 10000 | CCC(CC)n1cc(-c2nc(-c3cnn([C@H]4C[C@@](C)(O)C4)c3)cn3nccc23)cn1 [Example 162, (1s,3 s)-1-methyl-3-(4-(4-(1-(pentan-3-yl)-1H-pyrazol-4-yl)pyrazolo[1,5-a]pyrazin-6-yl)-1H-pyrazol-1-yl)cyclobutanol] | –
